Data taken from patent publication US20150306107A1, “SAA Derivative Compound Restores eNOS And Inhibits Oxidative Stress-Induced A Diseases In Hypoxia” (JANSFAT BIOTECHNOLOGY CO., LTD., priority 2014, published 2015).

Experiments:
[1] = system: eNOS; experiment: Western blotting of eNOS in lung tissue after long-term hypoxia; format: in vivo, rat; settings: hypoxia 21 days; compared to normoxia control
[2] = system: reactive oxygen species (ROS) of lung tissues; settings: long-term hypoxia
Experimental: In our in vivo hypoxic experiments, 10-week old male Wistar rats were equally divided into four groups: a normoxia group, a hypoxia group, a hypoxia+SPAAX-1 or SPAAX-1 RX complex group, and a hypoxia+Sildenafil or Sildenafil RX complex group. All the rats were maintained on a 12-h light/12-hr dark cycle at 25±1° C. and were provided with food and water ad libitum. The normoxia group was housed in standard normoxic conditions and the other three treated groups were continuously housed in a hypoxic chamber (10% O2) for 21 days, except for a 30-min interval each day when the chamber was cleaned (FIG. 2). During which, a normoxic gas mixture was prepared from compressed air.
Pulmonary ROS was measured using 2′-7′-dichloro-fluorescein (H2DCF-DA, Molecular Probe, USA). Briefly, 10 μl of lung tissue extract was diluted 100-fold with cold PBS and labelled with 5 μmol/L 2′-7′-dichlorofluorescein, and the mixture was incubated at 37° C. for 30 minutes and put in a centrifuge (1000 rpm) for 5 min. Fluorescence was measured at 485 nm excitation and 530 nm emission to determine the concentration of H2O2 (FLUOstar Galaxy, Germany).

[3] = system: ROCK II; experiment: Western blotting of ROCK II in lung tissue after long-term hypoxia; format: in vivo, rat; settings: hypoxia 21 days; hypoxia 144.7±12.6%
[4] = system: VEGF; experiment: Western blotting of VEGF in lung tissue after long-term hypoxia; format: in vivo, rat; settings: hypoxia 21 days; hypoxia 168.9±24.6%
[5] = system: eNOS; experiment: Western blotting of eNOS expression in isolated rat pulmonary artery ring, short-term (acute) hypoxia or normoxia; format: cell-based
In short: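 Isolated rat (male Wistar) pulmonary artery kept under normoxia (20% O2) or hypoxia (1% O2) at 37° C. for 24 hrs. Protein extracted, resolved on 10% SDS-PAGE ([…]), blotted to PVDF, probed with specific antibodies and ECL-detected, β-actin as loading control.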

[6] = system: PKG; experiment: Western blotting of PKG in lung tissue after long-term hypoxia; format: in vivo, rat; settings: hypoxia 21 days
Experimental: Whole right lung tissues of hypoxia-treated and untreated rats were isolated and cut into small strips and placed into an extraction buffer (Tris 10 mM, pH 7.0, NaCl 140 mM, PMSF 2 mM, DTT 5 mM, NP-40 0.5%, pepstatin A 0.05 mM and leupeptin 0.2 mM) for protein extraction, and then centrifuged at 12,500 g for 30 min. To measure the expression levels of the proteins, the total proteins were extracted and Western blotting analysis was performed as described previously (Bivalacqua T J, et al., 2013, TJ PLoSONE 8: e68028. doi:10.1371/journal. pone.0068028). Briefly, the protein extract was boiled to a ratio of 4:1 with a sample buffer (Tris 100 mM, pH 6.8, glycerol 20%, SDS 4% and bromophenol blue 0.2%). Electrophoresis was performed using 10% SDS-polyacrylamide gel (2 hr, 100 V, 40 mA, […] protein per lane). Separated proteins were transferred to PVDF membranes treated with 5% fat-free milk powder to block the nonspecific IgGs (90 min, 100 V) and incubated for one hour with a specific protein antibody. The blot was then incubated with anti-mouse or anti-goat IgG linked to alkaline phosphatase (1:1000) for 1 hr. Immunoreactive bands were visualized using horseradish peroxidase-conjugated secondary antibodies and subsequent electrochemiluminescence (ECL) detection (GE Healthcare Bio-Sciences Corp., Piscataway, N.J., U.S.A.). […]

[7] = system: sGCα1; experiment: Western blotting of sGCα1 in lung tissue after long-term hypoxia; format: in vivo, rat; settings: hypoxia 21 days; compared to normoxia control
[8] = system: VEGF; experiment: Immunohistochemistry of VEGF in pulmonary artery wall after long-term hypoxia; format: in vivo, rat
Experimental: For histological analysis, the rat pulmonary right lung sections or pulmonary artery were fixed in 4% formaldehyde for 1 hour at 4° C. After washing with phosphate buffer saline (PBS), they were sent for paraffin-embedded serial-sections. Serial cross-sections 7 μm thick were obtained from the cross-section of each pulmonary artery. Tissue sections were deparaffinized and rehydrated in an ethanol series. After tissue rehydration, endogenous peroxidase activity was quenched with 3% hydrogen peroxide for 30 minutes, and the sections were gently washed in PBS. Non-specific binding was blocked by incubation with 1% nonimmune bovine serum albumin (BSA) in PBS for 30 minutes at room temperature.
The tissue sections were incubated for 1 hour at room temperature with antibody against VEGF (ab1442, Millipore) or against eNOS (ab5589, Abcam) diluted 1:200 in PBS with 1% BSA. After being washed with PBS, the sections were incubated for 1 hour at room temperature with biotinylated goat antibody against rabbit (Dako, E-0432) and diluted 1:200 in PBS for 30 minutes at room temperature. The reaction was visualized by the addition of 3-3-diaminobenzidine (DAB) in a working solution of DAB substrate kit for peroxidase (vector lab, SK-4100) at room temperature for 5 minutes. The sections were washed in PBS for 10 minutes between each step, and counterstained with haematoxylin. […]

[9] = system: ROCK II; experiment: Western blotting of ROCK II expression in isolated rat pulmonary artery ring, short-term (acute) hypoxia or normoxia; format: cell-based
Experimental: In our in vitro short-term experiment, isolated rat pulmonary artery was grown under normoxia (20% O2) or hypoxia (1% O2) at 37° C. for 24 hrs as was previously done (Wu BN, et al. Int J Immunopathol Pharmacol 24:925, 2011). The heart weight and body weight ratio (HW/BW) of the rats treated with one of SPAAX-1, SPAAX-1 RX complex, Sildenafil or Sildenafil RX complex each measured on the 21st hypoxic day. All animal care and the experimental protocols of this study were approved by the Animal Care and Use Committee of the Kaohsiung Medical University. Male Wistar rats (200-250 g), provided by the National Laboratory Animal Breeding and Research Center (Taipei, Taiwan), were housed under constant temperature and controlled illumination. Food and water were available ad libitum.
Whole right lung tissues of hypoxia-treated and untreated rats were isolated and cut into small strips and placed into an extraction buffer (Tris 10 mM, pH 7.0, NaCl 140 mM, PMSF 2 mM, DTT 5 mM, NP-40 0.5%, pepstatin A 0.05 mM and leupeptin 0.2 mM) for protein extraction, and then centrifuged at 12,500 g for 30 min. To measure the expression levels of the proteins, the total proteins were extracted and Western blotting analysis was performed as described previously (Bivalacqua T J, et al., 2013, TJ PLoSONE 8: e68028. doi:10.1371/journal. pone.0068028). Briefly, the protein extract was boiled to a ratio of 4:1 with a sample buffer (Tris 100 mM, pH 6.8, glycerol 20%, SDS 4% and bromophenol blue 0.2%). Electrophoresis was performed using 10% SDS-polyacrylamide gel (2 hr, 100 V, 40 mA, […] protein per lane). Separated proteins were transferred to PVDF membranes treated with 5% fat-free milk powder to block the nonspecific IgGs (90 min, 100 V) and incubated for one hour with a specific protein antibody. The blot was then incubated with anti-mouse or anti-goat IgG linked to alkaline phosphatase (1:1000) for 1 hr. Immunoreactive bands were visualized using horseradish peroxidase-conjugated secondary antibodies and subsequent electrochemiluminescence (ECL) detection (GE Healthcare Bio-Sciences Corp., Piscataway, N.J., U.S.A.). Mouse or rabbit monoclonal antibody of eNOS (Upstate, N.Y., U.S.A.), sGCα (Sigma-Adrich, CA, U.S.A., sGCβ (Santa Cruz, Calif., U.S.A.), PDE-5A (BD Tansduction, San Jose, Calif., U.S.A.), PKG (Calbiochem, San Diego, Calif., U.S.A.) ROCKII (Upstate, N.Y., U.S.A.), RhoA (Santa Cruze, Calif., U.S.A.) and the loading control protein β-actin (Sigma-Adrich, MO, U.S.A.) were used in our Western blot analysis.
The Western blotting analysis measurements were performed as per lung tissue.

[10] = system: NOx in lung tissue; settings: 21 days of hypoxia; control group 100%, hypoxia 59.8±3.7%
Experimental: All the rats were maintained on a 12-h light/12-hr dark cycle at 25±1° C. and were provided with food and water ad libitum. The normoxia group was housed in standard normoxic conditions and the other three treated groups were continuously housed in a hypoxic chamber (10% O2) for 21 days, except for a 30-min interval each day when the chamber was cleaned (FIG. 2). During which, a normoxic gas mixture was prepared from compressed air.
Production of NO, represented by its metabolite nitrate+nitrite (NOx), in lung tissue extracts was determined using the Griess method (Chung H H et al, Br J Pharmacol 160: 971, 2010; Vascular Pharmacology 53: 239, 2010). The three step Greiss test converts nitrate (NO3^−) into nitrite (NO2^−), resulting in a total NO2^− concentration from a standard calibration curve. The lung tissue extracts were homogenized, washed with PBS and incubated in a lysis buffer in addition to a protease inhibitor cocktail (Sigma, St. Louis, Mo.) to obtain the extracts of lung proteins. […] The samples were then incubated (25° C, 10 min) with Griess reagent [N-(1-naphthyl)-ethylenediamine: 0.2% (w/v), sulphanilamide: 2% (w/v), solubilized in double-distilled water: 95% and phosphoric acid: 5% (v/v)] and the absorbance measured at 540 nm. […]

[11] = normoxia for 24 hrs, 10 μm, versus non-treated controls

## Cn1c(=O)c2c(ncn2CCN2CCN(c3ccccc3Cl)CC2)n(C)c1=O.O=C1O[C@H]([C@@H](O)CO)C(O)=C1O [SPAAX-1 ascorbate complex, 7-[2-[4-(2-chlorobenzene)piperazinyl]ethyl]-1,3-dimethylxanthine.ascorbic acid]
[1]
  eNOS expression in lung tissue: 139.7±16.9%
[2]
  hypoxia-induced increase of dichlorofluorescein (ROS of lung tissues): reduced
[3]
  ROCKII expression in lung tissue: 50.32±7.9%
[4]
  VEGF expression in lung tissue: 120.9±22.2%
[5]; hypoxia for 24 hrs, versus control level in normoxia, hypoxia 60±8.3%
  eNOS in isolated hypoxic pulmonary artery: 45±3.0%
[5]; isolated pulmonary artery, acute hypoxia
  eNOS in acute hypoxia: restored
[5]; [11]
  expression of eNOS in isolated pulmonary artery ring: 117.9±9.1%
[6]
  PKG expression in lung tissue: 85.0±12.9%
[7]
  sGCα1 expression in lung tissue: 40.4±8.4%
[8]
  VEGF immunostaining reactivity of pulmonary artery: reduced
[9]; hypoxia for 24 hrs, versus control level in normoxia, hypoxia 180±10.2%
  expression of ROCK II in isolated hypoxic pulmonary artery: 140±9.0%
[9]; [11]
  Expression of ROCK II in isolated pulmonary artery ring: 48.2±5.5%
[10]
  levels of NOx in lung tissue: 86.3±17.3%
